This is an account of results in EP1013282A2, “Pharmaceutical and foodstuff compositions containing transferrins and antibacteral agents for potentiating host defence activity and the treatment of infections” (priority 1992, dated 1993).

In series [1] the test system is Escherichia coli c 11. Kind of series: Intraperitoneal E. coli infection in mice: other chemotherapies with or without lactoferrin (Example 5). The series is classed as in vivo. The note with it: for ED50: gentamicin subcutaneous, ddY mice n=6; for potentiation of efficacy of the chemotherapy by lactoferrin: lactoferrin 0.5 mg/mouse oral, in vivo. From the text:
Example 5-The antimicrobial activities of chemotherapies were compared with or without lactoferrin treatment. The antimicrobial agents used were new quinolones, aminoglycoside antibiotic, gentamicin, erythromycin, chloramphenicol and minocycline. The efficacy was compared between the controls and lactoferrin groups. Mice strain ddY, four weeks old, were randomly allocated into groups (n=6) and intraperitoneally infected with Escherichia coli c 11 at a dose of 1 x 10^6 cells per mouse. One hour after the injection the chemotherapies and lactoferrin (0.5 mg/mouse) were simultaneously given orally except gentamicin was given subcutaneously since it is unabsorable from the intestinal tract. Evaluation of potentiation of the chemotherapies by lactoferrin is the same as described above. […]

The test system of series [2] is Proteus mirabilis strain 1287. Kind of series: Upper urinary tract infection in mice, kidney colony count (Example 9). It is filed as in vivo. The settings on record: for colony count ratio, lactoferrin (+) to (-): Lactoferrin (+) relative to Lactoferrin (-). The source says: Example 9-Male ICR mice, five weeks old, were dehydrated overnight, and Proteus mirabilis strain 1287 was inoculated into the bladder at a dose of 2 x 10^5 CFU per mouse. In order for the pathogen to colonize the kidneys, the urethra was closed by a clip for four hours. Ampicillin was orally given to the mice twice daily (10:00 am and 7:00 pm) for two consecutive days with or without oral lactoferrin therapy. On day 3 all mice were sacrificed and the kidneys were dissected ascetically. The kidneys were homogenized in sterile saline and the homogenate was spread over nutrient agar plates to determine the numbers of colonizing bacteria. […]

A further series deals with Proteus vulgaris OX.8. Kind of series: Intraperitoneal Proteus vulgaris infection in mice: oral β-lactam with or without oral lactoferrin (Example 4). The note with it: for ED50: ddY mice n=6, survivors at one week; for simultaneous administration with lactoferrin reduced the ED50s to: fraction of ED50 of antibiotic alone, lactoferrin 0.5 mg/mouse. The series is classed as in vivo. As for the experimental part: Example 4-The efficacy potentiation of lactoferrin was examined using mice infected with Proteus vulgaris OX.8. Each group of six mice, strain ddY, four weeks old, were intraperitoneally infected with P. vulgaris suspended in 3% gastric mucin at a dose of 2 x 10^6 cells per mouse. One hour after the injection, lactoferrin (0.5 mg/mouse) was orally given simultaneously with cephalosporins. […]
Consequently, the efficacy potentiation of cephalosporin due to simultaneous treatment with lactoferrin is not restricted merely to the pathogens belonging to the genus Escherichia and Klebsiella, but also includes Proteus.

Series [3] deals with Escherichia coli strain c-11. The series is described as follows: Intraperitoneal E. coli infection in mice: oral cephalosporin with or without oral lactoferrin (Example 3). It is filed as in vivo. The settings on record: for ED50: ddY mice n=6, survivors at one week; for ED50s reduced by simultaneous administration of lactoferrin to: fraction of ED50 of antibiotic alone, lactoferrin 1 mg/mouse. As for the experimental part:
Example 3-groups of six male mice strain ddY, four weeks old, were used in this experiment. They were intraperitoneally infected with 3% mucin suspension of Escherichia coli strain c-11 at a dose of 1 X 10^6 cells per mouse. Oral cephalosporin antibiotic was administered one hour after the injection simultaneously with bovine milk lactoferrin (26% iron saturation), 1 mg/mouse. Each control was given cephalosporin alone. The mice were observed one week after the injection and survivors were regarded as completely cured. […]

Series [4] is described as follows: Serum concentrations of cephalosporins with or without lactoferrin, bioassay with Bacillus subtilis (Experimental Example 2). As for the experimental part:
Experimental Example 2-The effect of lactoferrin on intestinal absorption of cephalosporin antibiotics was studied using male ddY mice (n=6), five weeks old.
The cephalosporin antibiotics used were cephalexin, cefixime, cefaclor and cefroxazine, and the serum , concentrations were determined by bioassay using Bacillus subtilis. The doses of the antibiotics and lactoferrin were 0.5 mg per mouse of each.

Series [5] deals with Escherichia coli c 11. The series is described as follows: Optimal dose of lactoferrin with cefaclor in E. coli infected mice (Example 6). The series is classed as in vivo. The settings on record: Lactoferrin dose 0.000 (cefaclor alone). As for the experimental part: Example 6-Optimal dose of lactoferrin was studied using mice strain ddY (n=6), four weeks old. The mice were intraperitoneally infected with Escherichia coli c 11 at a dose of 1 x 10^6 cells per mouse, and they were treated once orally with a mixture of lactoferrin and cefaclor one hour after the injection.

The subject of series [6] is Escherichia coli c 11. Kind of series: Timing of lactoferrin administration with cefaclor in E. coli infected mice (Example 7). It is filed as in vivo. The note with it: control (no lactoferrin). From the text: Example 7-The timing of lactoferrin administration is very important not only from a clinical point of view, but also from an economical point of view, since it indicates whether or not the treatment with lactoferrin is prophylactic, or curative, or both. The timing was studied using the same model as described in Example 6. Cefaclor was orally given one hour after injection of the bacteria. […]

The mark [7] stands for this setting: agent alone (Lactoferrin -), oral, one hour after infection.
Setting [8] is: agent with Lactoferrin + (0.5 mg/mouse oral, simultaneous).
Setting [9] is: antibiotic alone (Lactoferrin -), oral one hour after infection.
Where [10] appears, read: antibiotic with Lactoferrin + (0.5 mg/mouse, oral, simultaneous).
[11] abbreviates: antibiotic with Lactoferrin + (bovine milk lactoferrin 1 mg/mouse, oral, simultaneous).
Setting [12] is: mice, oral, lactoferrin simultaneously, blood withdrawn periodically.

For the compound `NC1CCN(c2nc3c(cc2F)c(=O)c(C(=O)O)cn3-c2ccc(F)cc2F)C1` (stereo not shown) [tosfloxacin], the ED50 is reported as 0.013 mg/mouse in the series with Escherichia coli c 11 [1] (setting [7]) and 0.009 mg/mouse with Escherichia coli c 11 [1] (setting [8]).
The matching figures for gentamicin: 0.608 mg/mouse and 0.610 mg/mouse.
Regarding `O=C(N[C@H](CO)[C@H](O)c1ccc([N+](=O)[O-])cc1)C(Cl)Cl` [chloramphenicol], the ED50 stood at 5.11 mg/mouse with Escherichia coli c 11 [1] (setting [7]) and 1.94 mg/mouse in the series with Escherichia coli c 11 [1] (setting [8]). Also, the “potentiation of efficacy of the chemotherapy by lactoferrin” value in the series on Escherichia coli c 11 [1] is recorded as “potentiated the efficacy”.
Consider `CC1(C)S[C@@H]2[C@H](NC(=O)[C@H](N)c3ccccc3)C(=O)N2[C@H]1C(=O)O` [ampicillin], for which the “colony quantity, Lactoferrin (-)” value in series [2] (ampicillin 0.01 mg/mouse) was 100,704 CFU/kidney; in series [2] (ampicillin 0.1 mg/mouse) it was 63,216 CFU/kidney; in series [2] (ampicillin 1.0 mg/mouse oral twice daily for two days, ICR mice, kidneys on day 3), 88 CFU/kidney. For the same compound, the “colony quantity, Lactoferrin (+)” value in series [2] (ampicillin 0.01 mg/mouse with lactoferrin 1 mg per mouse) was 58 CFU/kidney; in series [2] (ampicillin 0.1 mg/mouse with lactoferrin 1 mg per mouse) it was 36 CFU/kidney; in series [2] (ampicillin 1.0 mg/mouse with lactoferrin 1 mg per mouse), 0 CFU/kidney. For the same compound, the results for the “colony count ratio, lactoferrin (+) to (-)” value in series [2] (ampicillin 0.01 mg/mouse), in series [2] (ampicillin 0.1 mg/mouse) and in series [2] (ampicillin 1.0 mg/mouse) were 1/1736, 1/1756 and <1/88, respectively. The values for the ED50 in the series on Proteus vulgaris OX.8 (setting [9]) and with Proteus vulgaris OX.8 (setting [10]) were 0.300 mg/mouse and 0.148 mg/mouse, respectively. In the series on Proteus vulgaris OX.8, the “simultaneous administration with lactoferrin reduced the ED50s to” value is on record as 1/2.
As for `CC1=C(C(=O)O)N2C(=O)[C@@H](NC(=O)[C@H](N)c3ccccc3)[C@H]2SC1` [cefalexin], the ED50 stood at 8.54 mg/mouse in series [3] (setting [9]), 1.42 mg/mouse in series [3] (setting [11]), 0.402 mg/mouse in the series with Proteus vulgaris OX.8 (setting [9]) and 0.185 mg/mouse with Proteus vulgaris OX.8 (setting [10]). The “ED50s reduced by simultaneous administration of lactoferrin to” value (shortened to “ED50s reduced”) in series [3] is recorded as 1/4. In series [4] (mouse, in vivo, po), the “blood levels of the antibiotics with versus without lactoferrin” value was “virtually the same”. Moreover, the “simultaneous administration with lactoferrin reduced the ED50s to” value with Proteus vulgaris OX.8 was 1/2.
In the case of `N[C@@H](C(=O)N[C@@H]1C(=O)N2C(C(=O)O)=C(Cl)CS[C@H]12)c1ccccc1` [cefaclor], the ED50 in series [3] (setting [9]) was determined as 0.75 mg/mouse; in series [3] (setting [11]), 0.38 mg/mouse; with Proteus vulgaris OX.8 (setting [9]), 1.790 mg/mouse; with Proteus vulgaris OX.8 (setting [10]), 0.058 mg/mouse; with Escherichia coli c 11 [5] it was 1.510 mg/mouse; in the series with Escherichia coli c 11 [6], 1.846 mg/mouse. Also, in series [3], the “ED50s reduced” value was 1/2. In addition, in series [4] (setting [12]), the “blood levels of the antibiotics with versus without lactoferrin” value is reported as “virtually the same”. Moreover, the “simultaneous administration with lactoferrin reduced the ED50s to” value with Proteus vulgaris OX.8 was 1/3.
For the compound `COC1=C(C(=O)O)N2C(=O)[C@@H](NC(=O)[C@H](N)C3=CCC=CC3)[C@H]2SC1` [cefroxadine], the ED50 in series [3] (setting [9]) turned out to be 1.27 mg/mouse; in series [3] (setting [11]), 0.42 mg/mouse; with Proteus vulgaris OX.8 (setting [9]), 0.606 mg/mouse; with Proteus vulgaris OX.8 (setting [10]), 0.312 mg/mouse. Moreover, the “ED50s reduced” value in series [3] is on record as 1/3. For the same compound, in series [4] (setting [12]), the “blood levels of the antibiotics with versus without lactoferrin” value is listed as “virtually the same”.
On to `C=CC1=C(C(=O)O)N2C(=O)[C@@H](NC(=O)/C(=N\OCC(=O)O)c3csc(N)n3)[C@H]2SC1` [cefixime], for which the ED50 in series [3] (setting [9]) is recorded as 1.03 mg/mouse; in series [3] (setting [11]), 0.23 mg/mouse; in the series on Proteus vulgaris OX.8 (setting [9]), 0.519 mg/mouse; in the series with Proteus vulgaris OX.8 (setting [10]), 0.177 mg/mouse. In series [3], the “ED50s reduced” value is recorded as 1/4. In series [4] (setting [12]), the “blood levels of the antibiotics with versus without lactoferrin” value is listed as “virtually the same”. The “simultaneous administration with lactoferrin reduced the ED50s to” value in the series on Proteus vulgaris OX.8 is listed as 1/3.
`CN(C)c1ccc(O)c2c1C[C@H]1C[C@H]3[C@H](N(C)C)C(O)=C(C(N)=O)C(=O)[C@@]3(O)C(O)=C1C2=O` [minocycline]: the ED50 in the series on Escherichia coli c 11 [1] (setting [7]) worked out at 1.859 mg/mouse; in the series with Escherichia coli c 11 [1] (setting [8]), 0.631 mg/mouse.
With `O=C(O)c1cn(C2CC2)c2cc(N3CCNCC3)c(F)cc2c1=O` [ciprofloxacin], the results for the ED50 in the series on Escherichia coli c 11 [1] (setting [7]) and in the series on Escherichia coli c 11 [1] (setting [8]) were 0.200 mg/mouse and 0.214 mg/mouse, respectively.
For `CC1COc2c(N3CCN(C)CC3)c(F)cc3c(=O)c(C(=O)O)cn1c23` (stereo not shown) [ofloxacin] the same measures were 0.231 mg/mouse and 0.251 mg/mouse.
As for `CC[C@H]1OC(=O)[C@H](C)[C@@H](O[C@H]2C[C@@](C)(OC)[C@@H](O)[C@H](C)O2)[C@H](C)[C@@H](O[C@@H]2O[C@H](C)C[C@H](N(C)C)[C@H]2O)[C@](C)(O)C[C@@H](C)C(=O)[C@H](C)[C@@H](O)[C@]1(C)O` [erythromycin], the “potentiation of efficacy of the chemotherapy by lactoferrin” value with Escherichia coli c 11 [1] is recorded as “potentiated the efficacy”.
